In patent publication US20250092084A1, “C7, C12, AND C16 SUBSTITUTED NEUROACTIVE STEROIDS AND THEIR METHODS OF USE” (Sage Therapeutics, Inc., priority 2016, published 2025):
pIC50: −log10 of the molar value.

Target: rat brain cortical membranes (GABA receptor complex, [35S]-TBPS binding)
Assay: Steroid inhibition of [35S]-TBPS binding
Details: 3 nM [35S]-TBPS, in the presence of 5 mM GABA
Description: [^35S]-t-Butylbicyclophosphorothionate (TBPS) binding assays using rat brain cortical membranes in the presence of 5 mM GABA has been described (Gee et al, J Pharmacol. Exp. Ther. 1987, 241, 346-353; Hawkinson et al, Mol. Pharmacol. 1994, 46, 977-985; Lewin, A. H et al., Mol. Pharmacol. 1989, 35, 189-194).
Briefly, cortices are rapidly removed following decapitation of carbon dioxide-anesthetized Sprague-Dawley rats (200-250 g). The cortices are homogenized in 10 volumes of ice-cold 0.32 M sucrose using a glass/teflon homogenizer and centrifuged at 1500×g for 10 min at 4° C. The resultant supernatants are centrifuged at 10,000×g for 20 min at 4° C. to obtain the P2 pellets. The P2 pellets are resuspended in 200 mM NaCl/50 mM Na—K phosphate pH 7.4 buffer and centrifuged at 10,000×g for 10 min at 4° C. This washing procedure is repeated twice and the pellets are resuspended in 10 volumes of buffer. Aliquots ([…]) of the membrane suspensions are incubated with 3 nM [^35S]-TBPS and […] aliquots of test drug dissolved in dimethyl sulfoxide (DMSO) (final 0.5%) in the presence of 5 mM GABA. The incubation is brought to a final volume of 1.0 mL with buffer. Nonspecific binding is determined in the presence of […] and ranged from 15 to 25%. Following a 90 min incubation at room temp, the assays are terminated by filtration through glass fiber filters (Schleicher and Schuell No. 32) using a cell harvester (Brandel) and rinsed three times with ice-cold buffer. Filter bound radioactivity is measured by liquid scintillation spectrometry. Non-linear curve fitting of the overall data for each drug averaged for each concentration is done using Prism (GraphPad). […] The concentration of test compound producing 50% inhibition (IC50) of specific binding and the maximal extent of inhibition (Imax) are determined for the individual experiments with the same model used for the overall data and then the means±SEMs of the individual experiments are calculated.
Various compounds are or can be screened to determine their potential as modulators of [^35S]-TBPS binding in vitro. These assays are or can be performed in accordance with the above discussed procedures.

Structure (SMILES)	pIC50
C[C@@H]1C[C@H]2C[C@](C)(O)CC[C@]2(C)[C@H]2CC[C@]3(C)[C@@H](C(=O)Cn4cc5ccncc5n4)CC[C@H]3[C@H]12 [Compound 8]	≤ 6.30
CO[C@@H]1C[C@H]2[C@@H](CC[C@H]3C[C@](C)(O)CC[C@@]32C)[C@@H]2CC[C@H](C(=O)Cn3nnnc3C)[C@@]12C [Compound 61]	6.30 to 7.00
COC[C@H]1C[C@H]2C[C@](C)(O)CC[C@]2(C)[C@H]2CC[C@]3(C)[C@@H](C(=O)Cn4cc(C#N)cn4)CC[C@H]3[C@H]12 [Compound 13]	≤ 6.30
COC[C@@H]1C[C@H]2C[C@](C)(O)CC[C@]2(C)[C@H]2CC[C@]3(C)[C@@H](C(C)=O)CC[C@H]3[C@H]12 [Compound 12]	≤ 6.30
CO[C@@H]1C[C@H]2C[C@](C)(O)CC[C@]2(C)[C@H]2CC[C@]3(C)[C@@H](C(C)=O)CC[C@H]3[C@H]12 [Compound 29]	≤ 6.30
COC[C@@H]1C[C@H]2C[C@](C)(O)CC[C@]2(C)[C@H]2CC[C@]3(C)[C@@H](C(=O)Cn4cc(C#N)cn4)CC[C@H]3[C@H]12 [Compound 14]	≤ 6.30
CC[C@@H]1C[C@H]2[C@@H]3CC[C@H]4C[C@](C)(O)CC[C@]4(C)[C@H]3CC[C@]2(C)[C@H]1C(=O)Cn1nc2ccc(OC)cc2n1 [Compound 70]	≤ 6.30
CO[C@@H]1C[C@H]2[C@@H](CC[C@@H]3C[C@](C)(O)CC[C@@H]32)[C@@H]2CC[C@H](C(=O)Cn3nnnc3C)[C@@]12C [Compound 59]	6.30 to 7.00
CC[C@@H]1C[C@H]2[C@@H]3CC[C@H]4C[C@](C)(O)CC[C@]4(C)[C@H]3CC[C@]2(C)[C@H]1C(=O)Cn1nnc2cc(OC)ccc21 [Compound 72]	≤ 6.30
CC(=O)[C@H]1[C@H](C)C[C@H]2[C@@H]3CC[C@H]4C[C@](C)(O)CC[C@]4(C)[C@H]3CC[C@@]21C [Compound 64]	6.30 to 7.00
CO[C@@H]1C[C@H]2[C@@H](CC[C@H]3C[C@](C)(O)CC[C@@]32C)[C@@H]2CC[C@H](C#N)[C@@]12C [Compound 41]	6.30 to 7.00
COc1ccc2nn(CC(=O)[C@H]3[C@H](C(C)C)C[C@H]4[C@@H]5CC[C@H]6C[C@](C)(O)CC[C@]6(C)[C@H]5CC[C@@]43C)nc2c1 [Compound 77]	≤ 6.30
C[C@@]1(O)CC[C@@]2(C)[C@@H](C[C@@H](O)[C@@H]3[C@@H]2CC[C@]2(C)[C@@H](C(=O)Cn4ncc5ccncc54)CC[C@@H]32)C1 [Compound 28]	≤ 6.30
CC(=O)[C@H]1CC[C@H]2[C@@H]3CC[C@H]4C[C@](C)(O)CC[C@]4(C)[C@H]3CC(=O)[C@]12C [Compound 46]	≤ 6.30
Cc1nnn(CC(=O)[C@H]2[C@H](C)C[C@H]3[C@@H]4CC[C@H]5C[C@](C)(O)CC[C@]5(C)[C@H]4CC[C@@]32C)n1 [Compound 89]	7.30 to 8.00
CO[C@H]1C[C@H]2[C@@H](CC[C@H]3C[C@](C)(O)CC[C@@]32C)[C@@H]2CC[C@H](C(=O)Cn3cc(C#N)cn3)[C@@]12C [Compound 53]	≤ 6.30

Structure (SMILES)	pIC50
C[C@@H]1C[C@H]2C[C@](C)(O)CC[C@]2(C)[C@H]2CC[C@]3(C)[C@@H](C#N)CC[C@H]3[C@H]12 [Compound 1]	≤ 6.30
CO[C@H]1C[C@H]2C[C@](C)(O)CC[C@]2(C)[C@H]2CC[C@]3(C)[C@@H](C(=O)Cn4cc(C#N)cn4)CC[C@H]3[C@H]12 [Compound 31]	≤ 6.30
CC(=O)[C@H]1CC[C@H]2[C@@H]3[C@H](O)C[C@H]4C[C@](C)(O)CC[C@]4(C)[C@H]3CC[C@]12C [Compound 25]	≤ 6.30
COC[C@@H]1C[C@H]2C[C@](C)(O)CC[C@]2(C)[C@H]2CC[C@]3(C)[C@@H](C(=O)Cn4nc5ccc(OC)cc5n4)CC[C@H]3[C@H]12 [Compound 18]	≤ 6.30
COC[C@@H]1C[C@H]2C[C@](C)(O)CC[C@]2(C)[C@H]2CC[C@]3(C)[C@@H](C(=O)Cn4ncc5ccncc54)CC[C@H]3[C@H]12 [Compound 23]	≤ 6.30
C[C@H]1C[C@H]2C[C@](C)(O)CC[C@]2(C)[C@H]2CC[C@]3(C)[C@@H](C(=O)Cn4ncc5ccncc54)CC[C@H]3[C@H]12 [Compound 9]	6.30 to 7.00
Cc1nnnn1CC(=O)[C@H]1[C@H](C)C[C@H]2[C@@H]3CC[C@H]4C[C@](C)(O)CC[C@]4(C)[C@H]3CC[C@@]21C [Compound 90]	6.30 to 7.00
CC(=O)[C@H]1CC[C@H]2[C@@H]3[C@@H](C)C[C@H]4C[C@](C)(O)CC[C@]4(C)[C@H]3CC[C@]12C [Compound 6]	≤ 6.30
C[C@H]1C[C@H]2C[C@](C)(O)CC[C@]2(C)[C@H]2CC[C@]3(C)[C@@H](C(=O)Cn4cc(C#N)cn4)CC[C@H]3[C@H]12 [Compound 39]	6.30 to 7.00
CO[C@@H]1C[C@H]2[C@@H](CC[C@H]3C[C@](C)(O)CC[C@@]32C)[C@@H]2CC[C@H](C(C)=O)[C@@]12C [Compound 43]	6.30 to 7.00
COC[C@H]1C[C@H]2C[C@](C)(O)CC[C@]2(C)[C@H]2CC[C@]3(C)[C@@H](C(=O)Cn4nnc5ccc(OC)cc54)CC[C@H]3[C@H]12 [Compound 16]	≤ 6.30
CC(=O)[C@H]1[C@H](C)C[C@H]2[C@@H]3CC[C@H]4C[C@](C)(O)CC[C@@H]4[C@H]3CC[C@@]21C (stereo in doubt) [Compound 91]	7.30 to 8.00
C[C@@]1(O)CC[C@@]2(C)[C@@H](CC[C@@H]3[C@@H]2C[C@@H](O)[C@]2(C)[C@@H](C(=O)Cn4ncc5ccncc54)CC[C@@H]32)C1 [Compound 50]	≤ 6.30
CC[C@@H]1C[C@H]2[C@@H]3CC[C@H]4C[C@](C)(O)CC[C@]4(C)[C@H]3CC[C@]2(C)[C@H]1C(=O)Cn1nnc2ccc(OC)cc21 [Compound 71]	≤ 6.30
COC[C@H]1C[C@H]2C[C@](C)(O)CC[C@]2(C)[C@H]2CC[C@]3(C)[C@@H](C(=O)Cn4nnc5cc(OC)ccc54)CC[C@H]3[C@H]12 [Compound 17]	≤ 6.30
